For series [1], the target named is T1, FPTase (Homo sapiens, UniProt P49354+P49356). Put plainly: in vitro FTase Inhibition Assay, H-Ras used as substrate for farnesylation. It is filed as biochemical. The following applies: Table I, read-out: IC50 H-Ras*.
Series [2] deals with T1, FPTase. Put plainly: in vitro FTase Inhibition Assay, K-Ras used as substrate for farnesylation. It is filed as biochemical. The note with it: Table I.

Molecules are shown by their SMILES. Where only a bound is given, the exact number is not on record here.

For orientation: IC50 means the concentration at which inhibition is half-maximal. One may read the melting point as the temperature of the solid-liquid transition.

`COc1ccc(S(=O)(=O)C2(CCCC#Cc3ccc(C(F)(F)F)cc3)SC(=O)NC2=O)cc1` (stereo not drawn) [Example 153, 5-(4-Methoxybenzenesulfonyl)-5-[5-(4-trifluoromethylphenyl)pent-4-ynyl]thiazolidine-2,4-dione] displayed a melting point of 160 to 163 °C. Moreover, on FPTase [1], the IC50 lay in the range of 170 to 200 nM. The molecule also returned a 50% inhibitory concentration (IC50) against FPTase [2] of 1000 to 6100 nM.
`COc1ccc(S(=O)(=O)C2(CCCC#Cc3ccc(OC(F)(F)F)cc3)SC(=O)NC2=O)cc1` (stereo not drawn) [Example 154, 5-(4-Methoxybenzenesulfonyl)-5-[5-(4-trifluoromethoxyphenyl)pent-4-ynyl]thiazolidine-2,4-dione]: the melting point was 120 to 123 °C. In addition, the half-maximal inhibitory concentration (IC50) at FPTase [1] fell in the range of 70 to 150 nM. In addition, at FPTase [2], the IC50 was 1000 to 2500 nM.
For `COC(=O)c1ccc(C)c(C#CCCCC2(S(=O)(=O)c3ccc(OC)cc3)SC(=O)NC2=O)c1` (stereo not drawn) [Example 155, 3-{5-[5-(4-Methoxybenzenesulfonyl)-2,4-dioxo-thiazolidin-5-yl]-pent-1-ynyl}-4-methylbenzoic Acid Methyl Ester], the melting point lay in the range of 119 to 121 °C. Also, the IC50 on FPTase [1] was 10 to 320 nM. Also, on FPTase [2], the IC50 lay within 420 to 440 nM.
`Cc1ccc(S(=O)(=O)C2(CCCC#Cc3ccc(C(C)(C)C)cc3)SC(=O)NC2=O)cc1` (stereo not drawn) [Example 157, 5-[5-(4-tert-Butylphenyl)pent-4-ynyl]-5-(toluene-4-sulfonyl)thiazolidine-2,4-dione] came in with a melting point of 134 to 138 °C. At FPTase [1], the IC50 stood at 270 nM. Besides, the IC50 against FPTase [2] stood at 5000 nM.
Molecule `COc1ccc(S(=O)(=O)C2(CCCC#Cc3ccc(C#N)cc3)SC(=O)NC2=O)cc1` (stereo not drawn) [Example 158, 4-(5-[5-(4-Methoxybenzenesulfonyl)-2,4-dioxo-thiazolidin-5-yl]pent-1-ynyl}benzonitrile] displayed a melting point of 174 to 178 °C. The IC50 at FPTase [1] worked out at 150 nM. Also, the IC50 against FPTase [2] was 3800 nM.
For `Cc1ccc(S(=O)(=O)C2(CCCC#Cc3ccc(S(C)(=O)=O)cc3)SC(=O)NC2=O)cc1` (stereo not drawn) [Example 159, 5-[5-(4-Methanesulfonylphenyl)-pent-4-ynyl]-5-(toluene-4-sulfonyl)-thiazolidine-2,4-dione], the melting point lay in the range of 190 to 193 °C. The IC50 at FPTase [1] was determined as 650 nM. At FPTase [2], this molecule came in with an IC50 above 10000 nM.
In the case of `O=C1NC(=O)C(CCCC#Cc2ccc(-n3cccc3)cc2)(S(=O)(=O)c2ccc(I)cc2)S1` (stereo not drawn) [Example 162, 5-(4-Iodo-benzenesulfonyl)-5-[5-(4-pyrrol-1-yl-phenyl)pent-4-ynyl]-thiazolidine-2,4-dione], the melting point was 194 to 195 °C. In addition, the IC50 on FPTase [1] worked out at 1210 nM. At FPTase [2], this molecule had an IC50 of 4000 nM.
For `COc1cccc(S(=O)(=O)C2(CCCC#Cc3cccs3)SC(=O)NC2=O)c1` (stereo not drawn) [Example 164, 5-(3-Methoxybenzenesulfonyl)-5-(5-thiophen-2-yl-pent-4-ynyl)-thiazolidine-2,4-dione], in that order: 133 to 135 °C, 150 nM and above 10000 nM.
`COc1ccc(S(=O)(=O)C2(CCCC#Cc3cccs3)SC(=O)NC2=O)cc1` (stereo not drawn) [Example 166, 5-(4-Methoxybenzenesulfonyl)-5-(5-thiophen-2-yl-pent-4-ynyl)-thiazolidine-2,4-dione] displayed a melting point of 60 to 66 °C. At FPTase [1], the IC50 worked out at 150 nM. At FPTase [2], this molecule registered a concentration for half-maximal inhibition (IC50) of 5300 nM.
As for `Cc1ccc(S(=O)(=O)C2(CC#Cc3ccc(-c4ccccc4)cc3)SC(=O)NC2=O)cc1` (stereo not drawn) [Example 169, 5-(3-Biphenyl-4-yl-prop-2-ynyl)-5-(toluene-4-sulfonyl)-thiazolidine-2,4-dione], the melting point lay in the range of 179 to 180 °C. Also, the IC50 at FPTase [1] stood at 100 nM. Also, on FPTase [2], the IC50 came to 1800 nM.
For the molecule `Cc1ccc(S(=O)(=O)C2(CC#Cc3ccc(Oc4ccccc4)cc3)SC(=O)NC2=O)cc1` (stereo not drawn) [Example 170, 5-[3-(4-Phenoxyphenyl)prop-2-ynyl]-5-(toluene-4-sulfonyl)-thiazolidine-2,4-dione], the melting point lay in the range of 64 to 66 °C. For the same molecule, the IC50 at FPTase [1] was 380 nM. For the same molecule, the IC50 against FPTase [2] is 4700 nM.

The values above are taken from patent US6605628B1, “Method of using 5-(arysulfonyl)-, 5-(arylsulfanyl)-and 5-(arylsulfanyl)thiazolidine-2,4-diones for inhibition of farnesyl-protein transferase” (Wyeth Holdings Corporation, priority 2001, dated 2003).
